Assay results as given in ChEMBL document CHEMBL3784925, “Discovery of a New Inhibitor of Myeloid Differentiation 2 from Cinnamamide Derivatives with Anti-Inflammatory Activity in Sepsis and Acute Lung Injury” (J Med Chem, 2016).
Calls of active or inactive are those of the source. The rule behind the calls is not given here.

How the values were obtained:
[1] = Cytotoxicity against C57BL/6 mouse primary peritoneal macrophages assessed as reduction in cell viability at 10 uM after 24 hrs by MTT assay; format: cell-based; conditions: peritoneal macrophage cell
[2] = target: T1, Lymphocyte antigen 96 (Mus musculus) (UniProt Q9JHF9); assay: Inhibition of MD2/TLR4 complex formation in C57BL/6 mouse primary peritoneal macrophages assessed as reversal of LPS-induced […] at 10 uM preincubated for 30 mins followed by LPS addition measured after 1 hr by DAPI staining based fluorescence microscopic analysis
T1 sequence (whole entry): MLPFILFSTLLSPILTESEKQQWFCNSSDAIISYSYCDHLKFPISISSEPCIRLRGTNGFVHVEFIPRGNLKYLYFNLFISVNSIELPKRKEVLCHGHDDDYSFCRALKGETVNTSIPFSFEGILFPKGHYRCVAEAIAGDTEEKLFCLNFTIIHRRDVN

| inhibition [2] | SMILES | Activity [1] |
| --- | --- | --- |
| – | COc1ccc(CCNC(=O)/C=C/c2ccc(OC)cc2OC)cc1 | Non-toxic |
| – | COc1ccc(/C=C/C(=O)NCCCc2ccccc2)c(OC)c1 | Non-toxic |
| – | COc1ccc(/C=C/C(=O)NCc2ccc(OC)c(OC)c2)c(OC)c1 | Non-toxic |
| – | COc1ccc(/C=C/C(=O)N2CCOCC2)c(OC)c1 | Non-toxic |
| – | COc1cc(/C=C/C(=O)NCCNC(=O)/C=C/c2ccc(O)c(OC)c2)ccc1O | Non-toxic |
| – | O=C(/C=C/c1cccc(Cl)c1Cl)NCCc1ccccc1 | Non-toxic |
| – | O=C(/C=C/c1cccc(Cl)c1Cl)NCc1ccc(Cl)cc1 | Non-toxic |
| inactive | COc1cccc(-c2cc(=O)c3ccccc3o2)c1N | – |
| – | COc1ccc(CCNC(=O)/C=C/c2ccc(O)c(OC)c2)cc1 | Non-toxic |
| – | COc1ccc(/C=C/C(=O)NCCCCCCNC(=O)/C=C/c2ccc(OC)cc2OC)c(OC)c1 | Non-toxic |
| – | CCCCNC(=O)/C=C/c1ccc(O)c(OC)c1 | Non-toxic |
| – | O=C(/C=C/c1cccc(Cl)c1Cl)N1CCOCC1 | Non-toxic |
| – | O=C(/C=C/c1cccc(Cl)c1Cl)NCc1ccc(F)cc1 | Non-toxic |
| – | O=C(/C=C/c1cccc(Cl)c1Cl)NCCCCCCNC(=O)/C=C/c1cccc(Cl)c1Cl | Non-toxic |
| – | COc1cc(/C=C/C(=O)NCCCc2ccccc2)ccc1O | Non-toxic |
| – | COc1ccc(/C=C/C(=O)NCc2ccc(Cl)cc2)c(OC)c1 | Non-toxic |
| – | O=C(/C=C/c1cccc(Cl)c1Cl)NCc1ccccc1 | Non-toxic |
| – | COc1cc(/C=C/C(=O)NCc2ccccc2)ccc1O | Non-toxic |
